Values of other authors as cited in US20160128970A1, “COMPOSITION AND METHOD FOR TREATING NOSEBLEEDS” (BINYARCO, LLC, priority 2005, published 2016).

In the case of bismuth subgallate, the solubility in water is given as “insoluble in water”.
